Test results published in patent US8377934B2, “Use of stilbene derivatives for treatment and prevention of aquatic mold infections” (State of Israel, Ministry of Agriculture & Rural …, priority 2006, dated 2013).
Values after ≈ are worked out from the molar mass of the structure shown.

Experiments:
[1] = test system: tilapia; assay: in vivo; conditions: for LC50: tilapia, mortality up to 96 h
Description: LC50 values were determined by static short-term tests as a measure of the relative acute lethal toxicity for tilapia (Standard methods for the evaluation of water and wastewater (1985) 16th ed. American Public Health Association, Washington, D.C. p. 689-819).
Hybrid tilapia (Oreochromis niloticus X Oreochromis aureus) having an average weight of 20 g, were kept in 100 liter polyethylene tanks at a density of 1 fish per 10 liters, at a constant temperature of 21° C. for three weeks before the initiation of the experiment by addition of a test compound to each tank. […] For the latter experiments, fish were acclimated to the required temperature for three weeks prior to addition of the test compound to the tank. Fish were treated with 5 different concentrations of each test compound, determined according to the MIC values of each compound.
Mortality of fish was recorded up to 96 h. Water parameters (O2, NH4^+, NO2^−, pH and Cl^−) were monitored throughout the experiment and were maintained within acceptable limits. The presented results are the mean of two separate experiments.

[2] = test system: S. parasitica; assay: In vitro susceptibility of S. parasitica in Table 4; type: cell-based, Saprolegnia parasitica
Description: The in vitro susceptibility of Saprolegnia parasitica T-1 and S. parasitica CBS 540.67 to various compounds was determined by the agar-dilution and broth macrodilution methods.
(§1) Two methods were used, each suitable for a different phase of the asexual life cycle of Saprolegnia spp.: i) the broth macrodilution method, for determination of susceptibility of zoospores and cysts; and ii) the agar-dilution method for determination of susceptibility of filamentous hyphae. Each compound was tested three times in each method. Malachite Green was used as positive control.
This method is a modification of the method used for molds according to EUCAST 7.1 (European Committee on Antibiotic Susceptibility Testing) and CLSI/NCCLS M27-A2 (Clinical Laboratory Standards Institute/National Committee for Clinical Laboratory Standards). For inoculum preparation, S. parasitica isolates were cultured on GP-PS for 7 days with sterile clover seeds at 18° C. Clover seeds (˜20) covered with mycelium were removed and added to 40 ml of RPMI-1640 broth medium (Sigma; prepared according to NCCLS instructions) and incubated at 18° C. for 4-7 days. Cysts and zoospores free from hyphae were collected, and an inoculum of ˜10^3 CFU/ml as measured by hemacytometer counting, was prepared in RPMI. Fluorescent Brightener 28 stock solution was prepared by adding 40% KOH gradually to a 10 mg/ml solution in water, until it was clear, then it was filtered twice through a 0.2 μm cellulose acetate nonpyrogenic sterile filter (Schleicher & Schuell, Dassel, Germany).
Twofold serial dilutions of the resulting stock solutions were set in RPMI-1640 medium in a volume of 0.1 ml. Final drug concentrations in the test tubes ranged from 1×10^4 to 0.01 mg/L. Inoculum of 0.9 ml was added to each of a sterile tube containing 0.1 ml of the serially diluted drug. Two tubes containing drug-free medium and two tubes containing drug-free inoculum were used as controls. The inoculated tubes were incubated at room temperature (15-20° C.) for 24 h. The growth in each tube was then evaluated visually.
This method is a modification of the method presented by Bailey (Bailey, T. A. (1983) Prog. Fish Cult. 45:24-27), and was used for the susceptibility testing of Saprolegnia hyphae. Twofold serial dilutions were prepared in double distillated sterile water with final drug concentrations ranging from 10,000 to 0.01 mg/L in a final volume of 1.0 ml. Melted (56° C.) RPMI-1640 agar medium (Sigma) was prepared according to NCCLS instructions, and then added to each tube containing drug or water control. The mixture was vortexed, and poured into small plates. After agar solidification a small measured piece, taken from a 7-10 day old culture of S. parasitica T-1 on GP-PS medium was placed upside down on each plate. The plates were incubated at room temperature (15-20° C.) for 24 h.

[3] = test system: S. parasitica T-1; assay: Agar-dilution susceptibility testing (filamentous hyphae); type: cell-based, Saprolegnia parasitica; conditions: 24 h
Description: as §1
Twofold serial dilutions were prepared in double distillated sterile water with final drug concentrations ranging from 10,000 to 0.01 mg/L in a final volume of 1.0 ml. […] The mixture was vortexed, and poured into small plates. After agar solidification a small measured piece, taken from a 7-10 day old culture of S. parasitica T-1 on GP-PS medium was placed upside down on each plate. The plates were incubated at room temperature (15-20° C.) for 24 h.

[4] = test system: various fish species; assay: Toxicity testing in various fish species; type: in vivo; conditions: all five fish species tested, 15° C., up to 96 h
Description: LC50 values for Blankophor® BA in various fish species were determined as in Example 2, except that fish were acclimated to 21° C. for three weeks, and then to 15° C. for another two weeks before the initiation of the experiment. Following acclimation to 15° C., Blankophor® BA (100, 200, 500, 1,000 or 2,000 mg/L) was added to the tanks, and mortality of fish was recorded up to 96 h. […] The fish used were: hybrid tilapia (Oreochromis niloticus X O. aureus), average weight 20 g; grey mullet (Mugil cephalus), average weight 70 g; common carp (Cyprinus carpio), average weight 25 g; hybrid striped bass (Morone saxatilis X M. chrysops), average weight 25 g, and grass carp (Ctenopharyngodon idella), average weight 25 g.

[5] = test system: S. parasitica; assay: Tilapia-saprolegniosis established infection model; type: in vivo; conditions: 50 and 100 mg/L on 3rd and 8th day
Description: Tilapia were exposed to S. parasitica and treated with Blankophor® BA (100, 50 and 25 mg/L), as described in Example 4, with the exception that Blankophor® BA treatment was started on the 3rd day after initiation of the infection, and repeated on the 8th day. By the starting point of the Blankophor® BA treatment, approximately 50% of the fish had established infection, as indicated by the presence of white skin lesions and a mortality rate of approximately 30%.

[6] = test system: Chlorella, Microcystis, Peridinium, Melosira and Lake Kinneret samples; assay: 14C-carbon uptake study of photosynthetic activity; type: cell-based, phytoplankton; conditions: 100 mg/L
Description: FIG. 6 illustrates the effect of exposure to Blankophor® BA (100 mg/L) (□) on photosynthetic activity in pure cultures of Chlorella (C), Microcystis (M), Peridinium (P) and Melosira (Me), and in samples from Lake Kinneret (LK), as determined by ^14C-uptake. Control, (▪).
Samples from Lake Kinneret and pure cultures of Peridinium sp. and Microcystis sp. were exposed to Blankophor® BA (100 mg/L), for a few minutes and the concentration of chlorophyll-a was determined (in duplicate) according to the excitation spectrum examined (range from 400 to 730 nm). In addition, the exposed and non-exposed samples were assessed for carbon uptake with a ^14C technique.

SMILES | Toxicity ([1]; in vivo) | MIC ([2]; Saprolegnia parasitica, read-out: Activity in vitro (MIC), value) | MIC ([3]; Saprolegnia parasitica, read-out: MIC, Agar-dilution) | Toxicity ([1]; Table 4 summary) | LC50 ([1]; 15° C.) | LC50 ([1]; 18° C.) | LC50 ([1]; 25° C.) | LC50 [4] | Activity in vitro (MIC), grade ([2]; Table 4 summary) | Activity in vitro (MIC), value ([2]; Table 4 summary) | efficacy in promoting survival of infected fish [5] | MIC, Agar-dilution ([3]; S. parasitica T-1, 15-20° C., geometric mean of three tests) | photosynthetic activity (14C-carbon uptake) [6]
C=O [Formaldehyde] | Moderate (key: High: high = 50 ppm; Moderate: moderate = 50-200 ppm; Low: low = >1000 ppm) | 100 µg/mL (≈ 3.33 mM) | 100 µg/mL (≈ 3.33 mM) | – | – | – | – | – | – | – | – | – | –
O=S(=O)([O-])c1cc(Nc2nc(Nc3ccccc3)nc(N(CCO)CCO)n2)ccc1C=Cc1ccc(Nc2nc(Nc3ccccc3)nc(N(CCO)CCO)n2)cc1S(=O)(=O)[O-].[K+].[Na+] [Blankophor® BA] | – | – | – | Low (low = >1000 ppm) | >2,000 mg/L | >2,000 mg/L | >2,000 mg/L | greater than 2000 mg/L | Moderate | (100 mg/L) | highly effective | 200 µg/mL | did not decrease
